Measured values taken from ChEMBL document CHEMBL1201862, “PubChem BioAssay data set” (2004).
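Test compounds were applied to cells in 96-well plates for 48 hours at 5 doses. The concentration for 50% growth inhibition is given as GI50.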 Calls of active or inactive are those of the source. Cut-off read from the data, not from the text of the source: active = GI50 up to about 1.1 µM and inactive = higher.

What was measured:
Test in all cases: DTP human tumour cell line panel, 48 h
[1] = test system: A498
[2] = test system: A549
[3] = test system: ACHN
[4] = test system: CAKI-1
[5] = test system: CCRF-CEM
[6] = test system: COLO 205
[7] = test system: DLD-1
[8] = test system: DMS-114
[9] = test system: DMS-273
[10] = test system: EKVX
[11] = test system: HCC 2998
[12] = test system: HCT-116
[13] = test system: HCT-15
[14] = test system: HL-60
[15] = test system: HOP-18
[16] = test system: HOP-92
[17] = test system: HT-29
[18] = test system: IGROV-1
[19] = test system: K562
[20] = test system: KM-20L2
[21] = test system: KM12
[22] = test system: LOX IMVI
[23] = test system: LXFL 529
[24] = test system: M14
[25] = test system: MOLT-4
[26] = test system: Malme-3M
[27] = test system: NCI-H226
[28] = test system: NCI-H23
[29] = test system: NCI-H460
[30] = test system: OVCAR-4
[31] = test system: OVCAR-5
[32] = test system: OVCAR-8
[33] = test system: RPMI-8226
[34] = test system: RXF 393
[35] = test system: RXF 631
[36] = test system: SF-268
[37] = test system: SF-295
[38] = test system: SF-539
[39] = test system: SK-MEL-28
[40] = test system: SK-MEL-2
[41] = test system: SN12C
[42] = test system: SNB-19
[43] = test system: SNB-75
[44] = test system: SNB-78
[45] = test system: SR
[46] = test system: SW-620
[47] = test system: TK-10
[48] = test system: U-251
[49] = test system: UACC-257
[50] = test system: UO-31
[51] = test system: XF498
[52] = test system: 786-0
[53] = test system: HOP-62
[54] = test system: M19-MEL
[55] = test system: NCI-H522
[56] = test system: OVCAR-3
[57] = test system: SK-MEL-5
[58] = test system: SK-OV-3
[59] = test system: UACC-62

In the case of `CCOC(=O)/C=C(\C)c1ccc(Cl)cc1`, the GI50 [1] is reported as > 100 µM (inactive), the GI50 [2] is reported as > 100 µM (inactive) and the GI50 [3] is reported as > 100 µM (inactive). The GI50 [4] was > 100 µM (inactive), the GI50 [5] was > 100 µM (inactive) and the GI50 [6] was > 100 µM (inactive). The GI50 [7] was > 100 µM (inactive), the GI50 [8] was > 100 µM (inactive) and the GI50 [9] was > 100 µM (inactive). The GI50 [10] was > 100 µM (inactive), the GI50 [11] was > 100 µM (inactive) and the GI50 [12] was > 100 µM (inactive). For the same compound, the GI50 [13] was greater than 100 µM, the GI50 [14] was > 100 µM (inactive) and the GI50 [15] was > 100 µM (inactive). For the same compound, the GI50 [16] was > 100 µM (inactive), the GI50 [17] was > 100 µM (inactive) and the GI50 [18] was > 100 µM (inactive). For the same compound, the GI50 [19] was > 100 µM (inactive), the GI50 [20] was > 100 µM (inactive) and the GI50 [21] was > 100 µM (inactive). For the same compound, the GI50 [22] was > 100 µM (inactive), the GI50 [23] was > 100 µM (inactive) and the GI50 [24] was > 100 µM (inactive). The GI50 [25] was > 100 µM (inactive), the GI50 [26] was > 100 µM (inactive) and the GI50 [27] was 54.8 µM (inactive). For the same compound, the GI50 [28] was > 100 µM (inactive), the GI50 [29] was > 100 µM (inactive) and the GI50 [30] was > 100 µM (inactive). The GI50 [31] was > 100 µM (inactive), the GI50 [32] was > 100 µM (inactive) and the GI50 [33] was > 100 µM (inactive). The GI50 [34] was > 100 µM (inactive), the GI50 [35] was > 100 µM (inactive) and the GI50 [36] was > 100 µM (inactive). The GI50 [37] was > 100 µM (inactive), the GI50 [38] was > 100 µM (inactive) and the GI50 [39] was > 100 µM (inactive). For the same compound, the GI50 [40] was > 100 µM (inactive), the GI50 [41] was > 100 µM (inactive) and the GI50 [42] was > 100 µM (inactive). For the same compound, the GI50 [43] was > 100 µM (inactive), the GI50 [44] was > 100 µM (inactive) and the GI50 [45] was > 100 µM (inactive). The GI50 [46] was > 100 µM (inactive), the GI50 [47] was > 100 µM (inactive) and the GI50 [48] was > 100 µM (inactive). The GI50 [49] was > 100 µM (inactive), the GI50 [50] was > 100 µM (inactive) and the GI50 [51] was > 100 µM (inactive).
With `CC(C)(C)C1CC[C@H]2c3c([nH]c4ccc(Br)cc34)[C@H]3C(=O)N(c4ccccc4)C(=O)[C@H]3[C@H]2C1` (some centres not stated) the GI50 [52] was 6.67 µM (inactive), the GI50 [2] was 27.4 µM (inactive) and the GI50 [3] was > 100 µM (inactive). The GI50 [4] was 53.7 µM (inactive), the GI50 [5] was 5.52 µM (inactive) and the GI50 [6] was 7.74 µM (inactive). The GI50 [7] was 27.8 µM (inactive), the GI50 [8] was 18.2 µM (inactive) and the GI50 [9] was 6.27 µM (inactive). For the same compound, the GI50 [10] was 92.9 µM (inactive), the GI50 [11] was > 100 µM (inactive) and the GI50 [12] was 11.3 µM (inactive). For the same compound, the GI50 [14] was 7.71 µM (inactive), the GI50 [15] was 33 µM (inactive) and the GI50 [53] was 54 µM (inactive). The GI50 [16] was 23.1 µM (inactive), the GI50 [17] was 43 µM (inactive) and the GI50 [18] was > 100 µM (inactive). For the same compound, the GI50 [19] was 11.5 µM (inactive), the GI50 [20] was 45.9 µM (inactive) and the GI50 [21] was 17.6 µM (inactive). The GI50 [22] was 19.1 µM (inactive), the GI50 [23] was 14.3 µM (inactive) and the GI50 [24] was 22 µM (inactive). The GI50 [54] was 19.8 µM (inactive), the GI50 [25] was 15.6 µM (inactive) and the GI50 [26] was 31.6 µM (inactive). For the same compound, the GI50 [27] was 35.2 µM (inactive), the GI50 [28] was 27.9 µM (inactive) and the GI50 [29] was 8.09 µM (inactive). For the same compound, the GI50 [55] was 19.4 µM (inactive), the GI50 [56] was 75.2 µM (inactive) and the GI50 [30] was 11.2 µM (inactive). The GI50 [31] was > 100 µM (inactive), the GI50 [32] was 3.49 µM (inactive) and the GI50 [33] was 98.2 µM (inactive). The GI50 [34] was 32.7 µM (inactive), the GI50 [35] was 4.13 µM (inactive) and the GI50 [36] was 8.73 µM (inactive). The GI50 [37] was 14 µM (inactive), the GI50 [39] was 41.1 µM (inactive) and the GI50 [40] was 50.9 µM (inactive). For the same compound, the GI50 [57] was 28.1 µM (inactive), the GI50 [58] was 21.7 µM (inactive) and the GI50 [41] was 13.5 µM (inactive). The GI50 [42] was 23.6 µM (inactive), the GI50 [43] was 18.5 µM (inactive) and the GI50 [44] was 10 µM (inactive). For the same compound, the GI50 [45] was 3.22 µM (inactive), the GI50 [46] was 17.4 µM (inactive) and the GI50 [47] was 48.9 µM (inactive). For the same compound, the GI50 [48] was 10.4 µM (inactive), the GI50 [49] was > 100 µM (inactive) and the GI50 [59] was 23.3 µM (inactive). The GI50 [50] was 74.8 µM (inactive) and the GI50 [51] was 16.9 µM (inactive).
